Results reported in ChEMBL document CHEMBL1158866, “Bioactive labdane diterpenoids from Renealmia alpinia collected in the Suriname rainforest” (J Nat Prod, 1997).
≈ marks a conversion by molar mass, not a printed value. Calls of active or inactive are those of the source. The calls are words filed in the database; no cut-off is given here.

What was measured:
M109 = assay: Cytotoxicity against mouse M109 cells; assay type: functional, cell-based
Saccharomyces cerevisiae = assay: Antimicrobial activity against yeast Sc7; assay type: functional
Candida tropicalis = assay: Antimicrobial activity against Candida tropicalis; assay type: functional
KB = assay: Cytotoxicity against human KB cells; assay type: functional; details: read-out: ED50 (the source's name)
[1] = system: Meyerozyma guilliermondii; assay: Antimicrobial activity against sCandida guilliermondii; assay type: functional

| Compound | Activity (M109) | IC12 (Saccharomyces cerevisiae) [µg/mL] | IC50 (M109) [µg/mL] | MIC (Candida tropicalis) [µg/mL] | EC50 (KB) [µg/mL] | MIC [1] [µg/mL] |
| --- | --- | --- | --- | --- | --- | --- |
| C=C1CC[C@H]2C(C)(C)CCC[C@]2(C)[C@H]1C/C=C(/C=O)CC(=O)O | inactive | 200 |  |  |  |  |
| C=C1CC[C@H]2C(C)(C)CCC[C@]2(C)[C@H]1[C@@H]1C=C(C=O)C[C@H](O)O1 |  | 3 | 2.6 (≈ 8.16 µM) |  |  |  |
| C=C1CC[C@H]2C(C)(C)CCC[C@]2(C)[C@H]1C/C=C(/C=O)CC=O | inactive | 46 |  | 6.25 (≈ 20.7 µM) | 40 (≈ 132 µM) | 6.25 (≈ 20.7 µM) |
